Measured values from ChEMBL document CHEMBL1138068 (J Med Chem, 2006).

How the values were obtained:
Cytochrome P450 2D6 = Cytochrome P450 2D6 (Homo sapiens, UniProt P10635); experiment: Inhibition of CYP2D6; type: ADME
[1] = target: Neuronal acetylcholine receptor subunit alpha-7 (Rattus norvegicus, UniProt Q05941); experiment: Displacement of [125I]alpha-BTX from alpha-7 nAChR in rat hippocampus membrane; type: cell membranes
Cytochrome P450 2C9 = Cytochrome P450 2C9 (Homo sapiens, UniProt P11712); experiment: Inhibition of CYP2C9; type: ADME
Cytochrome P450 1A2 = Cytochrome P450 1A2 (Homo sapiens, UniProt P05177); experiment: Inhibition of CYP1A2; type: ADME
Cytochrome P450 3A4 = Cytochrome P450 3A4 (Homo sapiens, UniProt P08684); experiment: Inhibition of CYP3A4; type: ADME
Cytochrome P450 2C19 = Cytochrome P450 2C19 (Homo sapiens, UniProt P33261); experiment: Inhibition of CYP2C19; type: ADME
Sequence of Cytochrome P450 2C19 (P33261 whole entry): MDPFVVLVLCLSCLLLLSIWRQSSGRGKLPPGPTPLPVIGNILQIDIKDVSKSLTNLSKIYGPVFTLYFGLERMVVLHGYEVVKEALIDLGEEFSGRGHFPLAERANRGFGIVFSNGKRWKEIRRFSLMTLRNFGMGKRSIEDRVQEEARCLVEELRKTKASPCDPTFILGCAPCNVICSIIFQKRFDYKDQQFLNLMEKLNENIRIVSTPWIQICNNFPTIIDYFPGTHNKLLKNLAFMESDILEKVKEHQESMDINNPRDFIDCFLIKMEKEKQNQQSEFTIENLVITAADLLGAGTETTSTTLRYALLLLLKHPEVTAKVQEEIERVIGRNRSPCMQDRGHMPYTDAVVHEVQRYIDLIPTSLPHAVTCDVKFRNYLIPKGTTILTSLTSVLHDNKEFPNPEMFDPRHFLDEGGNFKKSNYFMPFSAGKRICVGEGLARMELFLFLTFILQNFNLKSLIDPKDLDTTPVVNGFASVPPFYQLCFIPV

Sequence of Cytochrome P450 2D6 (P10635 whole entry): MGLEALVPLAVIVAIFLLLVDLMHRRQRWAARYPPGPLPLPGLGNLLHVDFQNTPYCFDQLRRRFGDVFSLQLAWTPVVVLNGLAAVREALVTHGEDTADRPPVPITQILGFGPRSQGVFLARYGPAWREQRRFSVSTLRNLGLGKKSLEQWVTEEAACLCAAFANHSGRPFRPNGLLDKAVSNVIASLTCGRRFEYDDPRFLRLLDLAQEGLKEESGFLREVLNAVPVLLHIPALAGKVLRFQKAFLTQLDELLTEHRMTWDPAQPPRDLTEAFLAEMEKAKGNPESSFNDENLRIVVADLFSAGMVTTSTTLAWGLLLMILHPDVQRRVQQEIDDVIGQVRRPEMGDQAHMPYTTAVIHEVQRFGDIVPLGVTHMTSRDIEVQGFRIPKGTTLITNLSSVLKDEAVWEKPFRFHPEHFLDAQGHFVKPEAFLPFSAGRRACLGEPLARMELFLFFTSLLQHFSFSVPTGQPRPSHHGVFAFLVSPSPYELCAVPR
Sequence of Neuronal acetylcholine receptor subunit alpha-7 (Q05941 whole entry): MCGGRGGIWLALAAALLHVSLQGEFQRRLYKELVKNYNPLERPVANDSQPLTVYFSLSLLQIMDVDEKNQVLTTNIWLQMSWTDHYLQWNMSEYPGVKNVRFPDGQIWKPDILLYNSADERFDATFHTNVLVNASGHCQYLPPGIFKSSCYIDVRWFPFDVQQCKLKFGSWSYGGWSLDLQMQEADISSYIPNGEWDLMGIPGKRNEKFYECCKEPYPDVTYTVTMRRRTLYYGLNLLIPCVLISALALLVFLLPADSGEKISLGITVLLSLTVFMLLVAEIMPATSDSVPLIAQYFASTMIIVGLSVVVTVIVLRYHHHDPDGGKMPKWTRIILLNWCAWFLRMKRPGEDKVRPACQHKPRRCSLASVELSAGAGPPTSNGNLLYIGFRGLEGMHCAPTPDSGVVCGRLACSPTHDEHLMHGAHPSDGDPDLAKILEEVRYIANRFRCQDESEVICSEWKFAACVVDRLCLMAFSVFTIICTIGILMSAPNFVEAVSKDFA
Sequence of Cytochrome P450 1A2 (P05177 whole entry): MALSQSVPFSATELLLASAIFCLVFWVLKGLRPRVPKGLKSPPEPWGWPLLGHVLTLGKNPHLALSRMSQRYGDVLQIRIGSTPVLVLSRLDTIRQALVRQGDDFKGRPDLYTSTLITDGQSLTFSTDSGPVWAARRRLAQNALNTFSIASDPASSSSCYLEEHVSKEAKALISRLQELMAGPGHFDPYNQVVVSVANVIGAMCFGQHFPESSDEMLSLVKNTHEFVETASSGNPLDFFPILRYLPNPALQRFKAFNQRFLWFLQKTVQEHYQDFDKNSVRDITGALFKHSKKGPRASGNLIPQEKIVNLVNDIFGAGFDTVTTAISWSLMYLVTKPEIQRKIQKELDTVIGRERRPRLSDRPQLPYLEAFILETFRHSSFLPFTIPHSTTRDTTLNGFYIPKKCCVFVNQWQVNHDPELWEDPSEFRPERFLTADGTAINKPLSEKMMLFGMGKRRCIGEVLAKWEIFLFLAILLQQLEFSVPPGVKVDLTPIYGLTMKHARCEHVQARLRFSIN
Sequence of Cytochrome P450 3A4 (P08684 whole entry): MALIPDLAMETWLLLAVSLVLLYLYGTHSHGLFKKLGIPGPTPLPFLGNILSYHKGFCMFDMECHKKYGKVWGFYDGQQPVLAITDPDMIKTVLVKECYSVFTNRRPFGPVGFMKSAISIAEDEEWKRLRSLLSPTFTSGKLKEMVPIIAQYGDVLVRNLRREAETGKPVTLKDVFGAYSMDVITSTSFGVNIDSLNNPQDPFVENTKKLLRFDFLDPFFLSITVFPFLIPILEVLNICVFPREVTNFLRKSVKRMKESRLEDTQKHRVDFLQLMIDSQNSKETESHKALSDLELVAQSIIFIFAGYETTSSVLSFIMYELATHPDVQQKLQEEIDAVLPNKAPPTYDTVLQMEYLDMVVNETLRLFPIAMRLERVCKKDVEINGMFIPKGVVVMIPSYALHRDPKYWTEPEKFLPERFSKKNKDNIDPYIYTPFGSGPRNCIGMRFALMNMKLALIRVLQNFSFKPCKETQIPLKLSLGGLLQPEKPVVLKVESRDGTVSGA
Sequence of Cytochrome P450 2C9 (P11712 whole entry): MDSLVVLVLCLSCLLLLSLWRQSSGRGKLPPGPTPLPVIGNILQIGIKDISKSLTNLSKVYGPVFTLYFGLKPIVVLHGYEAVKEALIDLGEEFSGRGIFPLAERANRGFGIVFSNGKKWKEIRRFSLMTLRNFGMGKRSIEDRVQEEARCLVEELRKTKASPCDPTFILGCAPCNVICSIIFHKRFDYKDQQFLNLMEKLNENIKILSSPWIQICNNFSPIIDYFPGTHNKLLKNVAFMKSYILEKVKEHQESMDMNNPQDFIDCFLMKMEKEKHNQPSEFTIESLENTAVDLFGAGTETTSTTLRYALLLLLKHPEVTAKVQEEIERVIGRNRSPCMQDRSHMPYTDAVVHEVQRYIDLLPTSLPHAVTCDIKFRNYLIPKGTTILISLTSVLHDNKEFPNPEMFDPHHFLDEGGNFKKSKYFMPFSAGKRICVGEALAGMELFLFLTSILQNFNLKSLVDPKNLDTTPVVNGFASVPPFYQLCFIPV

Row | SMILES | IC50 (Cytochrome P450 2D6) [nM] | Ki [1] [nM] | also measured
1 | Cc1cc2cc(N3C[C@@]4(CN5CCC4CC5)OC3=O)ccc2s1 | > 30000 | – | –
2 | Cc1oc2ccc(N3C[C@]4(CN5CCC4CC5)OC3=O)cc2c1C | > 30000 | 4 | –
3 | O=C1O[C@]2(CN3CCC2CC3)CN1c1ccc(Cl)s1 | 2000 | – | Activity (Cytochrome P450 2C9): Not Active; Activity (Cytochrome P450 1A2): Not Active; Activity (Cytochrome P450 3A4): Not Active; Activity (Cytochrome P450 2C19): Not Active
4 | CCc1coc2ccc(N3C[C@@]4(CN5CCC4CC5)OC3=O)cc12 | 21000 | 8 | –
5 | Cc1nc2cc(N3C[C@@]4(CN5CCC4CC5)OC3=O)ccc2s1 | – | 60 | –
6 | Cc1oc2ccc(N3C[C@@]4(CN5CCC4CC5)OC3=O)cc2c1Br | – | 11 | –
7 | Cn1c(=O)sc2cc(N3CC4(CN5CCC4CC5)OC3=O)ccc21 (single isomer, unassigned) | – | – | IC50 [1]: > 1000 nM
